Structures can show the parent of a compound that is named as a salt. Where two headings read alike, the source gives them in different places.
Experiments:
[1] = stability of syrup with continuous exposure to light in amber and flint glass bottles; assay type: physicochemical; conditions: for assay after one month with continuous exposure to light, amber glass bottles / assay after one month with continuous exposure to light, flint glass bottles: ambient temperature, about 2000 Foot-candles, 24 hours/day, 43800 min; for assay after one month with continuous exposure to light, flint glass bottles: transparent (flint) glass
Protocol: In a procedure similar to that of Example 5, syrup formulations were prepared, placed in amber glass bottles and transparent (flint) glass bottles, and held under conditions of ambient temperature with continuous exposure to light. (About 2000 Foot-candles of combined fluorescent and incandescent light, for 24 hours/day.)

[2] = assay type: physicochemical; conditions: syrup; for percent of original concentration retained after one month: 0.6 percent d,l-glaucine lactate, 0.2 percent codeine phosphate or d,l-glaucine hydrobromide, 43800 min; for Percentage Remaining after 3 months at 40° C. / Percentage Remaining after 3 months at 55° C. / Percentage Remaining after 3 months at Ambient: 131400 min
Protocol: Stability of d,l-glaucine lactate was examined in the syrup vehicle of Example 4.
Syrups containing codeine phosphate, 0.2 percent, contained 97.5, 104.5 or 100 percent, respectively, after one month at ambient temperature, 40° C. or 55° C. […] After three months, the percentage amount of antitussive agent remaining was as shown below

[3] = solubility in cough syrup vehicle; assay type: physicochemical; conditions: cough syrup vehicle of Example 4
Protocol: A cough syrup vehicle formulation was prepared containing the following pharmaceutically-acceptable excipients: […]

[4] = test system: guinea pigs (coughing, citric acid aerosol); assay: antitussive activity, citric acid aerosol test, intraperitoneal injection; assay type: in vivo; conditions: Cavia porcellus, ip
Protocol: Separate groups of guinea pigs were orally administered various doses of a test compound, or distilled water for a control group. One hour after oral dosing, the guinea pigs were exposed to a 5 percent aerosol of citric acid for a 10 minute test period. The number of cough responses produced during the last five minutes of exposure to the citric acid aerosol was recorded and the dosage effect to suppress coughing in 50 percent of the guinea pigs (ED50) was calculated. An antitussive effect was recorded for a guinea pig when its total number of coughs during the 5 minute test period were at least two standard deviation units below the mean number of coughs per guinea pig in the control group. […]; In an operation similar to that of Example 2, test compounds were administered to guinea pigs by intraperitoneal injection, with one group of guinea pigs receiving distilled water as a control. ED50 's were calculated for antitussive activity in the citric acid aerosol test as described in Example 2. […];

[5] = test system: mouse (phenyl-p-quinone writhing); assay: analgesic activity, phenyl-p-quinone mouse writhing test; assay type: in vivo; conditions: oral, 30 minutes prior to phenyl-p-quinone challenge
Protocol: Test compounds were evaluated for analgesic activity in the phenyl-p-quinone mouse writhing test of Hendershot & Forsaith, J. Pharmacol. Exptl. Therap. 125(3) 237 (1959). The test compounds were administered orally 30 minutes prior to the phenyl-p-quinone challenge.

[6] = test system: guinea pigs (coughing, citric acid aerosol); assay: antitussive activity, citric acid aerosol test, oral; assay type: in vivo; conditions: Cavia porcellus, 1 h, 5 percent citric acid aerosol one hour after dosing
Protocol: Separate groups of guinea pigs were orally administered various doses of a test compound, or distilled water for a control group. One hour after oral dosing, the guinea pigs were exposed to a 5 percent aerosol of citric acid for a 10 minute test period. The number of cough responses produced during the last five minutes of exposure to the citric acid aerosol was recorded and the dosage effect to suppress coughing in 50 percent of the guinea pigs (ED50) was calculated. An antitussive effect was recorded for a guinea pig when its total number of coughs during the 5 minute test period were at least two standard deviation units below the mean number of coughs per guinea pig in the control group. […];

[7] = stability of crystalline d,l-glaucine lactate on storage; assay type: physicochemical; conditions: crystalline solid, 2 months storage at 40° C., read-out: percent of original assay retained, crystalline solid
[8] = test system: mice; assay type: in vivo; conditions: for stimulation and Straub tail: mouse, in vivo, 100 mg/kg; for mice jumping after naloxone: naloxone 100 mg/kg intraperitoneal after increasing doses on two consecutive days
Protocol: Physical dependency liability was evaluated in mice by the procedure of Saelens, et al., Arch. Int. Pharmacodynam, 190:213-218, 1971. In this procedure, mice are administered increasing doses of a test compound at intervals on two consecutive days. The last dosage on the second day is followed by intraperitoneal injection of the morphine antagonist, naloxone, at a dosage of 100 mg/kg, and the mice are observed for characteristic jumping behaviour indicative of opiate withdrawals or morphine antagonism.

SMILES | ED50 [4] [mg/kg] | ED50 [5] [mg/kg] | assay after one month with continuous exposure to light, amber glass bottles [1] [%] | assay after one month with continuous exposure to light, flint glass bottles [1] [%] | percent of original concentration retained after one month ([2]; 40° C.) [%] | percent of original concentration retained after one month ([2]; 55° C.) [%] | percent of original concentration retained after one month ([2]; ambient temperature) [%] | Percentage Remaining after 3 months at 40° C. ([2]; 40° C.) [%] | Percentage Remaining after 3 months at 55° C. ([2]; 55° C.) [%] | Percentage Remaining after 3 months at Ambient [2] [%] | ED50 [6] [mg/kg] | stimulation and Straub tail [8] | mice jumping after naloxone [8] | further results
COc1cc2c(cc1OC)-c1c(OC)c(OC)cc3c1C(C2)N(C)CC3 (racemic) [d,l-glaucine hydrobromide] |  |  |  |  |  |  |  |  |  |  |  |  |  | assay after one month with continuous exposure to light, amber glass bottles ([1]; hydrobromide): 84%; assay after one month with continuous exposure to light, flint glass bottles ([1]; hydrobromide): 74.5%; percent of original concentration retained after one month ([2]; 40° C., hydrobromide): 96%; percent of original concentration retained after one month ([2]; 55° C., hydrobromide): 89.5%; percent of original concentration retained after one month ([2]; ambient temperature, hydrobromide): 99%; Percentage Remaining after 3 months at 40° C. ([2]; 40° C., listed as d,l-Glaucine . HBr, hydrobromide): 93.3%; Percentage Remaining after 3 months at 55° C. ([2]; 55° C., listed as d,l-Glaucine . HBr, hydrobromide): 91.4%; Percentage Remaining after 3 months at Ambient ([2]; listed as d,l-Glaucine . HBr, hydrobromide): 100.8%; solubility in cough syrup vehicle ([3]; hydrobromide): 0.3%; solubility in cough syrup vehicle per 5 milliliter dosage unit ([3]; hydrobromide): about 15 milligrams per 5 milliliter dosage unit
COc1cc2c(cc1OC)-c1c(OC)c(OC)cc3c1C(C2)N(C)CC3 (racemic) [d,l-glaucine lactate] | 7.9 | 25.5 | 94 | 80.6 | 100.6 | 96.7 | 98.8 | 97.0 | 97.4 | 104.1 | 63.4 |  |  | solubility in cough syrup vehicle [3]: 2%; solubility in cough syrup vehicle per 5 milliliter dosage unit [3]: about 100 milligrams per 5 milliliter dosage unit; remaining at 1460 h [7]: > 99%
COc1ccc2c3c1O[C@H]1[C@@H](O)C=C[C@H]4[C@@H](C2)N(C)CC[C@@]341 [codeine phosphate] | 10.9 | 21.2 | 100 | 100 | 104.5 | 100 | 97.5 | 101.1 | 88.4 | 101.3 | 86.6 | Straub tail and stimulation | 2 of 6 | stability in both types of container ([1]; amber and flint glass, light, one month): appeared stable in both types of container; total number of jumps after naloxone ([8]; naloxone 100 mg/kg intraperitoneal): 23 jumps total
COc1cc2c(cc1OC)-c1c(OC)c(OC)cc3c1C(C2)N(C)CC3 (racemic) [d,l-Glaucine lactate (2:3)] |  |  |  |  |  |  |  |  |  |  |  | no Straub tail | no jumping behaviour in any of the ten mice | 
COc1cc2c(cc1OC)-c1c(OC)c(OC)cc3c1[C@H](C2)N(C)CC3 [d-glaucine hydrobromide] | 10 | 34 |  |  |  |  |  |  |  |  | 89 |  |  | 
